For one assay, the target named is IRAK4 (Homo sapiens (Human), UniProt Q9NWZ3). Nature of the assay: IRAK4 MSD degradation in OCI-LY10. It is filed as cell-based. Put shortly:
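OCI-LY10 cells treated with 8-point 1:3 dilutions (top 1 to 10 μM final) for 4 to 24 h at 37° C. Lysate IRAK4 measured by MSD sandwich immunoassay (2H9 capture, Y279 detection, SULFO-TAG anti-rabbit). DC50 from three-parameter logistic fit.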

Another assay concerns OCI-LY10. Nature of the assay: CTG Cell Viability Assay - OCI-LY10. It is filed as cell-based, human. The note with it: OCI-LY10, 4 days, read-out: CTG Cell Viability Assay - OCI-LY10: Average external-IC50. Put shortly:
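OCI-LY10 cells exposed to 9-dose, 1:3 dilutions from 10 μM top (0.2% DMSO) for 4 days at 37° C, 5% CO2. Viability by CellTiter-Glo luminescence; IC50 from three-parameter logistic fit.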

Where [1] appears, read: OCI-LY10, 4 hrs, MSD, read-out: IRAK4 MSD degradation in OCI-LY10 at 4 hrs: Average external-Abs DC50.
[2] abbreviates: OCI-LY10, 4 hrs, read-out: IRAK4 MSD degradation in OCI-LY10 at 4 hrs: DC50.
The mark [3] stands for this setting: OCI-LY10, 24 hrs, read-out: IRAK4 MSD degradation in OCI-LY10 at 24 hrs: DC50.
Setting [4] is: OCI-LY10, 24 hrs, MSD, read-out: IRAK4 MSD degradation in OCI-LY10 at 24 hrs: Average external-Abs DC50.

Where two headings read alike, the source gives them in different places.

Chain of IRAK4 (Q9NWZ3 whole entry): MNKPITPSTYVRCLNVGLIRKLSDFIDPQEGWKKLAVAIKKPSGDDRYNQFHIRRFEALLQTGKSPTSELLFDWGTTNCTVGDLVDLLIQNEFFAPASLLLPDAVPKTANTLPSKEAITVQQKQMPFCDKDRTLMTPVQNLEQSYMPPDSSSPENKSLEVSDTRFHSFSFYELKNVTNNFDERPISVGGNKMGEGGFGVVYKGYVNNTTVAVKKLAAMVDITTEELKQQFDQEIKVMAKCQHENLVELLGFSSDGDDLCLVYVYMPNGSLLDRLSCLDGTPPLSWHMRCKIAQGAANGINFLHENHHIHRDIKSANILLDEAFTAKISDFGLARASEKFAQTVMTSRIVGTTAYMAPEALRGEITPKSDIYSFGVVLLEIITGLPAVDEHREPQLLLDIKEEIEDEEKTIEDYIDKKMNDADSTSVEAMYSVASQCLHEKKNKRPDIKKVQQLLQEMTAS

For `O=C1CCC(N2C[C@@H](c3ccc(C#CCCOC4CCN(C[C@H]5CC[C@H](n6cc(NC(=O)C7CNN8C=CC(N9CCOCC9)=NC78)c(C(F)F)n6)CC5)CC4)cc3)OC2=O)C(=O)N1` (stereo partly shown) [I-197], at IRAK4 (setting [1]), the 50% degradation concentration (DC50) lay within 0.01 to 0.1 µM. The IC50 in the assay on OCI-LY10 (Homo sapiens, OCI-Ly10, 96 h) is more than 1 µM.

As for `O=C1CCC(N2C(=O)c3cccc(NCCOCCCN4CCN(c5ncc(-n6cc(NC(=O)c7cnn8ccc(N9C[C@H]%10C[C@@H]9CO%10)nc78)c(C(F)F)n6)cn5)CC4)c3C2=O)C(=O)N1` (stereo partly shown) [I-474], the figures for the DC50 on IRAK4 (setting [2]) and at IRAK4 (setting [3]) were 0.1 to 1 µM and 0.01 to 0.1 µM, respectively. Moreover, in the assay with OCI-LY10 (Homo sapiens, OCI-Ly10, 96 h), the IC50 was less than 0.05 µM.

For the molecule `O=C1CCC(N2C(=O)c3cccc(NCCOC4CCN(C[C@H]5CC[C@H](n6cc(NC(=O)c7cnn8ccc(N9CCOCC9)nc78)c(C(F)F)n6)CC5)CC4)c3C2=O)C(=O)N1` (stereo partly shown) [I-210], the DC50 at IRAK4 (setting [1]) and on IRAK4 (setting [4]) was 0.01 to 0.1 µM each time. The IC50 in the assay on OCI-LY10 (Homo sapiens, OCI-Ly10, 96 h) is more than 1 µM.

With `Cn1c(=O)n(C2CCC(=O)NC2=O)c2cccc(CCCOCCC(=O)N3CCN([C@H]4CC[C@H](Nc5ncnc6ccc(C#N)cc56)CC4)CC3)c21` (stereo partly shown) [I-159], the DC50 at IRAK4 (setting [1]) and at IRAK4 (setting [4]) was more than 1 µM throughout. In the assay on OCI-LY10 (Homo sapiens, OCI-Ly10, 96 h), the IC50 is more than 1 µM.

`CN(CCCNc1cccc2c1C(=O)N(C1CCC(=O)NC1=O)C2=O)C1CCN(C(=O)[C@H]2CC[C@H](n3cc(NC(=O)c4cnn5ccc(C6C[C@H]7C[C@@H]6CO7)nc45)c(C(F)F)n3)CC2)CC1` (stereo partly shown) [I-358]: the DC50 at IRAK4 (setting [1]) was more than 1 µM; at IRAK4 (setting [4]) it was 0.01 to 0.1 µM. For the same molecule, the IC50 in the assay with OCI-LY10 (Homo sapiens, OCI-Ly10, 96 h) was in the range of 0.05 to 0.1 µM.

For `CN1C(=O)C(C2CCC(=O)NC2=O)c2cccc(CCCOC3CCN(C[C@H]4CC[C@H](n5cc(NC(=O)c6cnn7ccc(NCCC(C)(C)O)nc67)c(C(F)F)n5)CC4)CC3)c21` (stereo partly shown) [I-288], the DC50 on IRAK4 (setting [1]) is less than 0.01 µM. Also, the IC50 with OCI-LY10 (Homo sapiens, OCI-Ly10, 96 h) is more than 1 µM.

Consider `Cn1c(=O)n(C2CCC(=O)NC2=O)c2cccc(CN3CCC(CCN4CC(n5cc(NC(=O)c6coc(-c7ccnc(NCC8CC8)c7)n6)c(C(F)F)n5)C4)CC3)c21` (stereo not shown) [I-263], for which the DC50 on IRAK4 (setting [1]) was in the range of 0.01 to 0.1 µM. In addition, the half-inhibitory concentration (IC50) in the assay with OCI-LY10 (Homo sapiens, OCI-Ly10, 96 h) is less than 0.05 µM.

On to `O=C1CCC(N2C(=O)c3cccc(NCCC4CCN(C[C@H]5CC[C@H](n6cc(NC(=O)c7cnn8ccc(N9CCOCC9)nc78)c(C(F)F)n6)CC5)CC4)c3C2=O)C(=O)N1` (stereo partly shown) [I-365], for which the DC50 on IRAK4 (setting [1]) is 0.01 to 0.1 µM. In addition, in the assay on OCI-LY10 (Homo sapiens, OCI-Ly10, 96 h), the IC50 was less than 0.05 µM.

In the case of `CN(CC1CCN(c2cccc3c2C(=O)N(C2CCC(=O)NC2=O)C3=O)CC1)C[C@H]1CC[C@H](n2cc(NC(=O)c3cnn4ccc(N5CCOCC5)nc34)c(C(F)F)n2)CC1` (stereo partly shown) [I-220], the DC50 on IRAK4 (setting [1]) is more than 1 µM; at IRAK4 (setting [4]), 0.1 to 1 µM. Further, in the assay with OCI-LY10 (Homo sapiens, OCI-Ly10, 96 h), the IC50 is more than 1 µM.

As for `O=C1CCC(N2C(=O)c3cccc(OCCCOC4CCN(C[C@H]5CC[C@H](n6cc(NC(=O)c7cnn8ccc(N9CCOCC9)nc78)c(C(F)F)n6)CC5)CC4)c3C2=O)C(=O)N1` (stereo partly shown) [I-297], the DC50 at IRAK4 (setting [1]) lay in the range of 0.01 to 0.1 µM. The IC50 in the assay on OCI-LY10 is more than 1 µM.

In the case of `Cn1c(=O)n(C2CCC(=O)NC2=O)c2cccc(CN3CCC(O[C@H]4C[C@H](N(C)C[C@H]5CC[C@H](n6cc(NC(=O)c7coc(-c8ccnc(NCC9CC9)c8)n7)c(C(F)F)n6)CC5)C4)CC3)c21` (stereo partly shown) [I-249], the DC50 at IRAK4 (setting [1]) fell in the range of 0.01 to 0.1 µM. The IC50 with OCI-LY10 (Homo sapiens, OCI-Ly10, 96 h) is less than 0.05 µM.

For the molecule `CC[C@@H]1CC(=O)N[C@@H]1COc1ncc(C#CC2CCN(CCCOCCCc3cccc4c3n(C)c(=O)n4C3CCC(=O)NC3=O)CC2)c2cc(C(N)=O)c(OC)cc12` (stereo partly shown) [I-203], the DC50 is more than 1 µM on IRAK4 (setting [1]) and 0.1 to 1 µM at IRAK4 (setting [4]). The IC50 with OCI-LY10 (Homo sapiens, OCI-Ly10, 96 h) is more than 1 µM.

On to `O=C1CCC(N2C(=O)c3cccc(NCCCCC[C@@H]4CN(C[C@H]5CC[C@H](n6cc(NC(=O)c7cnn8ccc(N9C[C@H]%10C[C@@H]9CO%10)nc78)c(C(F)F)n6)CC5)CCO4)c3C2=O)C(=O)N1` (stereo partly shown) [I-460], for which the results for the DC50 at IRAK4 (setting [2]) and at IRAK4 (setting [3]) were 0.1 to 1 µM and 0.01 to 0.1 µM, respectively. The IC50 in the assay with OCI-LY10 (Homo sapiens, OCI-Ly10, 96 h) was in the range of 0.05 to 0.1 µM.

On to `C=C(C)c1nn([C@H]2CC[C@H](CN3CCC(OCCCc4cccc5c4n(C)c(=O)n5C4CCC(=O)NC4=O)CC3)CC2)cc1NC(=O)c1cnn2ccc(NCC3CC3)nc12` (stereo partly shown) [I-172], for which the DC50 on IRAK4 (setting [1]) lay within 0.1 to 1 µM. The IC50 in the assay with OCI-LY10 (Homo sapiens, OCI-Ly10, 96 h) is more than 1 µM.

Regarding `Cn1c(=O)n(C2CCC(=O)NC2=O)c2cccc(CN3CCC4(CC3)CN(C[C@H]3CC[C@H](n5cc(NC(=O)c6coc(-c7ccnc(NCC8CC8)c7)n6)c(C(F)F)n5)CC3)C4)c21` (stereo partly shown) [I-244], the DC50 on IRAK4 (setting [1]) is less than 0.01 µM. Moreover, the IC50 in the assay with OCI-LY10 (Homo sapiens, OCI-Ly10, 96 h) lay within 0.1 to 0.5 µM.

For the molecule `O=C(Nc1cn([C@H]2CC[C@H](CNC[C@H]3CC[C@H](n4cc(NC(=O)c5cnn6ccc(N7CCOCC7)nc56)c(C(F)F)n4)CC3)CC2)nc1C(F)F)c1cnn2ccc(N3CCOCC3)nc12` [I-408, N-[3-(difluoromethyl)-1-[4-[[[4-[3-(difluoromethyl)-4-[(5-morpholinopyrazolo[1,5-a]pyrimidine-3-carbonyl)amino]pyrazol-1-yl]cyclohexyl]methylamino]methyl]cyclohexyl]pyrazol-4-yl]-5-morpholino-pyrazol [1,5-a] pyrimidine-3-carboxamide], the half-maximal degradation concentration (DC50) on IRAK4 (setting [1]) and at IRAK4 (setting [4]) was more than 1 µM each time. In addition, the IC50 in the assay on OCI-LY10 (Homo sapiens, OCI-Ly10, 96 h) was more than 1 µM.

One may read the DC50 as the concentration giving 50% degradation. One may read the IC50 as the concentration that inhibits the measured activity by half.
